Measurements taken from patent publication US20120245029A1, “NOVEL PHOSPH(ON)ATE- AND SULF(ON)ATE-BASED PHOSPHATE MODIFIED NUCLEOSIDES USEFUL AS SUBSTRATES FOR POLYMERASES AND AS ANTIVIRAL AGENTS” (priority 2009, published 2012).

Columns and labels:
HIV-1 RT [1] = molecular target: T1, HIV-1 RT (Human immunodeficiency virus type 1 group M subtype B, UniProt P04585); assay: Gel-based single nucleotide incorporation assay by HIV-1 RT (primer-template P1T1); format: biochemical; conditions: for conversion within 60 minutes: P1T1; for % of P + 1: P1T1 125 nM
T1 construct: HIV-1 Reverse Transcriptase serves, in the HIV-1 viral replication process, as catalyst; purchased Ambion
Method: (§1) DNA polymerase reactions: end-labeled primer was annealed to its template by combining primer and template in a molar ratio of 1:2 and heating the mixture to 70° C. for 10 minutes followed by slow cooling to room temperature over a period of 1.5 hour. For the incorporation of a modified nucleoside, a series of 20 μL-batch reactions was performed with the enzyme HIV-1 RT (Ambion, 10 U/μL stock soln, specific activity 8.095 Wring, concentration 1.2 mg/mL). The final mixture contained 125 nM primer template complex, RT buffer (250 mM Tris.HCl, 250 mM KCl, 50 mM MgCl2, 2.5 mM spermidine, 50 mM dithiothreitol (DTT); pH 8.3), 0.025 U/μL HIV-1 RT, and different concentrations of the phosphoramidate to be tested (1 mM, 500 μM, 200 μM and 100 μM).
(§2) Electrophoresis: all polymerase reaction aliquots (2.5 μL) were quenched by the addition of 10 μL of loading buffer (90% formamide, 0.05% bromophenol blue, 0.05% xylene cyanol and 50 mM ethylenediaminetetraacetic acid (EDTA)). Samples were heated at 85° C. for 5 minutes prior to analysis by electrophoresis for 2.5 hours at 2000 V on a 30 cm×40 cm×0.4 mm 20% (19:1 mono:bis) denaturing gel in the presence of a 100 mM Tris-borate, 2.5 mM EDTA buffer; pH 8.3. Products were visualized by phosphorimaging. The amount of radioactivity in the bands corresponding to the products of enzymatic reactions was determined by using the imaging device Cyclone@ and the Optiquant image analysis software (Perkin Elmer).
Here, the ability of phosphoramidate analogues as substrate for HIV-1 RT was investigated by the gel-based single nucleotide incorporation assay. The natural nucleoside triphosphate (dATP) was used as reference.
The ability of HIV-1 reverse transcriptase to incorporate phosphoramidate analogues 2-6 was analysed by gel-based single-nucleotide-incorporation assays using the primer-template complex P1T1.

HIV-1 RT [2] = molecular target: T1, HIV-1 RT; assay: Elongation of primer P1 directed by template T2 by HIV-1 RT; format: biochemical; conditions: for % product P + 1 / % product P + 2 / % product P + 3 / % product P + 4 / % product P + 5 / % product P + 6 / % product P + 7: 120 minutes reaction, P1T2, percentage of the total amount of radio-nucleotides
Method: as §1, §2
In order to further investigate the potentiality of the leaving groups of this invention, L-Cys-dAMP (2) and 3-phosphono-L-Ala-dAMP (3) were tested in the template dependent incorporation of more than one phosphoramidate nucleotides by HIV-1 RT (FIG. 4). For this purpose, Primer P1 and template T2 containing an overhang of seven thymidine residues and four nucleobases (GGAC) at the 3′-end were used.
In order to investigate the strand elongation capacity of compound 2, a template dependent incorporation of more than one nucleotide experiment was carried out. In this experiment HIV-1 RT and P1T2 duplex, where seven thymidine bases overhang of the template is flanked by four non-thymidine units at the 3′-end were used. A range of concentration of the building block was incubated with the primer-template complex and 0.025 U/μL of enzyme at the appropriate temperature, samples were quenched after 15, 30, 60, 90 and 120 minutes respectively and analyzed by 20% polyacrylamide gel electrophoresis.

HIV-1 RT [3] = molecular target: T1, HIV-1 RT; assay: Steady-state kinetics of single nucleotide incorporation by HIV-1 RT; format: biochemical; conditions: P1T1 125 nM, HIV-1 RT 0.025 U/μL, 37° C.
Method: The efficiency of incorporation by HIV-1 RT of 3-phosphono-L-Ala-dAMP (3) was investigated by determination of the kinetic parameters Km and Vmax. The steady-state kinetics assay was carried out as follows. The reaction was started by adding HIV-1 RT to P1-T1 complex, buffer, 3-phosphono-L-Ala-dAMP (3) and dATP. The final mixture (20 μL) contained 0.025 U/μL HIV-1 RT, buffer, 125 nM primer-template complex, and various concentrations 3-phosphono-L-Ala-dAMP and dATP. The range of concentrations for phosphoamidates was optimized according to a Km value for the incorporation of an individual nucleotide. In the case of HIV-1 RT, reaction mixtures containing the enzyme in concentration (0.025 U/μL) to attain 5-25% conversion and appropriate substrate concentration (0.5-100 μM used for 3-phosphono-L-Ala-dAMP (3) and 0.1-10 μM used for dATP) were incubated at 37° C. and run for 8-10 different time intervals (2-20 minutes). The incorporation velocities were calculated based on the percentage of single-nucleotide extension product (P+1 band). The kinetic parameters (Vmax and Km) were determined by plotting V (nM/min) versus substrate concentration (μM) and fitting the data point to a nonlinear Michaelis-Menten regression using GraphPad Prism software.

HIV-1 RT [4] = molecular target: T1, HIV-1 RT; assay: Gel-based single nucleotide incorporation assay by HIV-1 RT (primer-template P1T1); format: biochemical; conditions: among phosphoramidate analogues 1-5
HIV-1 RT [5] = molecular target: T1, HIV-1 RT; conditions: previous experiments / already known; cited from earlier work

Structure (SMILES) | conversion within 60 minutes (HIV-1 RT [1]; 500 μM substrate, 60 min) [%] | % product P + 1 (HIV-1 RT [2]) [%] | % product P + 2 (HIV-1 RT [2]) [%] | % product P + 3 (HIV-1 RT [2]) [%] | % product P + 4 (HIV-1 RT [2]) | % product P + 5 (HIV-1 RT [2]) [%] | % product P + 6 (HIV-1 RT [2]) [%] | % product P + 7 (HIV-1 RT [2]) [%] | % of P + 1 (HIV-1 RT [1]; 100 μM substrate, 10 min) [%] | % of P + 1 (HIV-1 RT [1]; 100 μM substrate, 20 min) [%] | % of P + 1 (HIV-1 RT [1]; 100 μM substrate, 30 min) [%] | % of P + 1 (HIV-1 RT [1]; 100 μM substrate, 60 min) [%] | % of P + 1 (HIV-1 RT [1]; 100 μM substrate, 120 min) [%] | % of P + 1 (HIV-1 RT [1]; 200 μM substrate, 10 min) [%] | % of P + 1 (HIV-1 RT [1]; 200 μM substrate, 20 min) [%] | % of P + 1 (HIV-1 RT [1]; 200 μM substrate, 30 min) [%] | % of P + 1 (HIV-1 RT [1]; 200 μM substrate, 60 min) [%] | % of P + 1 (HIV-1 RT [1]; 200 μM substrate, 120 min) [%] | % of P + 1 (HIV-1 RT [1]; 1 mM substrate, 60 min) [%] | further results
Nc1ncnc2c1ncn2[C@H]1C[C@H](O)[C@@H](COP(=O)(O)N(CP(=O)(O)O)CP(=O)(O)O)O1 [Compound 6, 2′-deoxyadenosine-5′-[iminobis(methanephosphonate)] phosphoramidate] | 90 | 8.6 | 53.1 | 10.8 | traces | 0 | 0 | 0 | – | – | – | – | – | – | – | – | – | – | – | –
Nc1ncnc2c1ncn2[C@H]1C[C@H](O)[C@@H](COP(=O)(O)N[C@@H](CS(=O)(=O)O)C(=O)O)O1 [Compound 2, 2′-Deoxyadenosine-5′-(L-cysteic acid) phosphoramidate] | – | – | – | – | – | – | – | – | 7.7 | 7.9 | 8.5 | 9.3 | 9.1 | 13.7 | 15.6 | 16.0 | 15.8 | 18.1 | 63.1 | % of P + 1 (HIV-1 RT [1]; 500 μM substrate, 10 min): 27.7%; % of P + 1 (HIV-1 RT [1]; 500 μM substrate, 20 min): 29.6%; % of P + 1 (HIV-1 RT [1]; 500 μM substrate, 30 min): 38.3%; % of P + 1 (HIV-1 RT [1]; 500 μM substrate, 60 min): 38.4%; % of P + 1 (HIV-1 RT [1]; 500 μM substrate, 120 min): 41.5%; primer extension products (in words) (HIV-1 RT [2]; P1T2, gel electrophoresis): only extended a primer with one and two adenine nucleobases
Nc1ncnc2c1ncn2[C@H]1C[C@H](O)[C@@H](COP(=O)(O)OP(=O)(O)OP(=O)(O)O)O1 [dATP, reference compound] | – | – | – | – | – | – | – | – | – | – | – | – | – | – | – | – | – | – | – | Km (HIV-1 RT [3]): 0.93 ± 0.26 µM; Vmax (HIV-1 RT [3]): 32.27 ± 2.32 nM/min
Nc1ncnc2c1ncn2[C@H]1C[C@H](O)[C@@H](COP(=O)(O)N[C@@H](COP(=O)(O)O)C(=O)O)O1 [Compound 5, 2′-Deoxyadenosine-5′-(O-phospho-L-serine) phosphoramidate] | – | – | – | – | – | – | – | – | 3.1 | 3.2 | 4.6 | 5.1 | 5.2 | 3.7 | 4.6 | 5.8 | 6.6 | 9.5 | 19.4 | substrate quality for HIV-1 RT (in words) (HIV-1 RT [4]): much less good substrates
Nc1ncnc2c1ncn2[C@H]1C[C@H](O)[C@@H](COP(=O)(O)N(CCP(=O)(O)O)CCP(=O)(O)O)O1 [Compound 7, 2′-deoxyadenosine-5′-[iminobis(ethyl phosphonate)] phosphoramidate] | 83.2 | 15.2 | 35.4 | 4.9 | traces | 0 | 0 | 0 | – | – | – | – | – | – | – | – | – | – | – | –
Nc1ncnc2c1ncn2[C@H]1C[C@H](O)[C@@H](COP(=O)(O)N[C@@H](COS(=O)(=O)O)C(=O)O)O1 [Compound 4, 2′-Deoxyadenosine-5′-(O-sulfonato-L-serine) phosphoramidate] | – | – | – | – | – | – | – | – | – | – | – | – | – | – | – | – | – | – | 8.1 | substrate quality for HIV-1 RT (in words) (HIV-1 RT [4]): much less good substrates
Nc1ncnc2c1ncn2[C@H]1CC(O)[C@@H](COP(=O)(O)N(CC(=O)O)CP(=O)(O)O)O1 (stereo partly shown) [Compound 8] | 70.8 | 11.8 | 37.7 | 7.9 | traces | 1.2 | 0.6 | 1.2 | – | – | – | – | – | – | – | – | – | – | – | –
Nc1ncnc2c1ncn2C1CC(O)C(COP(=O)(O)NC(CC(=O)O)C(=O)O)O1 [L-aspartic acid phosphoramidate of dAMP] | – | – | – | – | – | – | – | – | – | – | – | – | – | – | – | – | – | – | – | substrate / leaving group quality for the polymerase (in words), already known (HIV-1 RT [5]): acceptable leaving group
Nc1ncnc2c1ncn2[C@H]1C[C@H](O)[C@@H](COP(=O)(O)N[C@@H](CO)C(=O)O)O1 [Ser-dAMP] | – | – | – | – | – | – | – | – | – | – | – | – | – | – | – | – | – | – | – | substrate / leaving group quality for the polymerase (in words), already known (HIV-1 RT [5]): poor substrate
Nc1ncnc2c1ncn2[C@H]1C[C@H](O)[C@@H](COP(=O)(O)NCCS(=O)(=O)O)O1 [Compound 1, 2′-deoxyadenosine-5′-taurine phosphoramidate] | – | – | – | – | – | – | – | – | 3.5 | 4.0 | 4.8 | 6.3 | 7.2 | 3.1 | 5.7 | 4.6 | 5.1 | 4.3 | 54.7 | % of P + 1 (HIV-1 RT [1]; 500 μM substrate, 10 min): 12.8%; % of P + 1 (HIV-1 RT [1]; 500 μM substrate, 20 min): 16.6%; % of P + 1 (HIV-1 RT [1]; 500 μM substrate, 30 min): 19.8%; % of P + 1 (HIV-1 RT [1]; 500 μM substrate, 60 min): 20.1%; % of P + 1 (HIV-1 RT [1]; 500 μM substrate, 120 min): 20.2%; % of P + 1 (HIV-1 RT [1]; 1 mM substrate, 10 min): 26.6%; % of P + 1 (HIV-1 RT [1]; 1 mM substrate, 20 min): 41.0%; % of P + 1 (HIV-1 RT [1]; 1 mM substrate, 30 min): 55.1%; % of P + 1 (HIV-1 RT [1]; 1 mM substrate, 120 min): 55.7%
